Measured values taken from ChEMBL document CHEMBL6096648, “Discovery of phenazine derivatives as a new class of non-classical ferroptosis inhibitors and efficacy evaluation on a mouse model of liver injury” (Eur J Med Chem, 2025).
Blank lines part the entries; values can stand above or below the molecule they belong to. Active and inactive are the calls of the source. The calls are words filed in the database; no cut-off is given here.

Assays:
LX-2 = assay: Inhibition of erastin-induced ferroptosis in human LX2 cells assessed as increase in cell viability incubated for 48 hrs in presence of erastin by MTT assay; type: functional, cell-based; conditions: LX-2, 48 h
ES-2 [1] = assay: Inhibition of erastin-induced ferroptosis in human ES2 cells assessed as increase in cell viability incubated for 48 hrs in presence of erastin by MTT assay; type: functional, cell-based; conditions: ES-2, 48 h
ES-2 [2] = assay: Inhibition of erastin-induced ferroptosis in human ES2 cells assessed as ERK protein expression at 0.01 to 1 uM incubated for 8 to 10 hrs by western blot analysis; type: functional, cell-based; conditions: dose 0.01-1 µM, time 8-10 hrs
HT-29 = assay: Inhibition of TNF-alpha/Smac-mimetic/Z-VAD-FMK-induced necrosis in human HT-29 cells assessed as cell viability at 10 uM incubated for 24 hrs in presence of TNF-alpha/Smac-mimetic/Z-VAD-FMK by MTT assay; type: functional, cell-based
ES-2 [3] = assay: Inhibition of erastin-induced ferroptosis in human ES2 cells assessed as increase in intracellular GSH content at 0.01 to 1 uM measured after 8 to 10 hrs; type: functional, cell-based; conditions: dose 0.01-1 µM, time 8-10 hrs
ES-2 [4] = assay: Inhibition of erastin-induced ferroptosis in human ES2 cells assessed as TFR1 protein expression at 0.01 to 1 uM incubated for 8 to 10 hrs by western blot analysis; type: functional, cell-based; conditions: dose 0.01-1 µM, time 8-10 hrs
[5] = Metal chelating activity assessed as compound-Fe2+ complex formation at 10 uM incubated for 5 mins by ferrozine-based colorimetric assay
ES-2 [6] = assay: Inhibition of staurosporine-induced apoptosis in human ES2 cells assessed as cell viability at 10 uM incubated for 24 hrs in presence of staurosporine by MTT assay; type: functional, cell-based
ES-2 [7] = assay: Inhibition of erastin-induced ferroptosis in human ES2 cells assessed as reduction in cytosolic ROS accumulation at 0.01 to 1 uM measured after 8 to 10 hrs by DCFH-DA staining based fluorescence analysis; type: functional, cell-based; conditions: dose 0.01-1 µM, time 8-10 hrs
ES-2 [8] = assay: Inhibition of erastin-induced ferroptosis in human ES2 cells assessed as GPX4 protein expression at 0.01 to 1 uM incubated for 8 to 10 hrs by western blot analysis; type: functional, cell-based; conditions: dose 0.01-1 µM, time 8-10 hrs
ES-2 [9] = assay: Inhibition of ferritinophagy in erastin-stimulated human ES2 cells assessed as increase in NCOA4 protein expression incubated for 8 to 10 hrs by western blot analysis; type: functional, cell-based; conditions: dose 0.01-1 µM, time 8-10 hrs
ES-2 [10] = assay: Inhibition of erastin-induced ferroptosis in human ES2 cells assessed as FPN protein expression at 0.01 to 1 uM incubated for 8 to 10 hrs by western blot analysis; type: functional, cell-based; conditions: dose 0.01-1 µM, time 8-10 hrs
Mus musculus [11] = assay: Protection against APAP-induced acute liver injury C57BL/6 mouse model assessed as decrease in liver tissue damage at 3 mg/kg, ip administered 2 hrs prior to APAP injection and measured after 6 hrs by Hematoxylin-Eosin staining based analysis; type: functional, organism-based; conditions: time 8.0 hrs
ES-2 [12] = assay: Inhibition of ferritinophagy in erastin-stimulated human ES2 cells assessed as increase in FTL gene expression at 0.01 to 1 uM by qRT-PCR analysis; type: functional, cell-based; conditions: dose 0.01-1 µM
[13] = Antioxidant activity assessed as DPPH radical scavenging activity at 1 to 50 uM incubated for 10 mins by DPPH assay; type: functional; conditions: dose 1-50 µM
ES-2 [14] = assay: Inhibition of ferritinophagy in erastin-stimulated human ES2 cells assessed as increase in NCOA4 gene expression at 0.01 to 1 uM by qRT-PCR analysis; type: functional, cell-based; conditions: dose 0.01-1 µM
ES-2 [15] = assay: Inhibition of erastin-induced ferroptosis in human ES2 cells assessed as DMT1 protein expression at 0.01 to 1 uM incubated for 8 to 10 hrs by western blot analysis; type: functional, cell-based; conditions: dose 0.01-1 µM, time 8-10 hrs
ES-2 [16] = assay: Inhibition of erastin-induced ferroptosis in human ES2 cells assessed as inhibition of lipid peroxidation by measuring decrease in MDA content at 0.01 uM measured after 8 to 10 hrs; type: functional, cell-based; conditions: time 8-10 hrs
ES-2 [17] = assay: Inhibition of erastin-induced ferroptosis in human ES2 cells assessed as FACL4 protein expression at 0.01 to 1 uM incubated for 8 to 10 hrs by western blot analysis; type: functional, cell-based; conditions: dose 0.01-1 µM, time 8-10 hrs
Mus musculus [18] = assay: Protection against APAP-induced acute liver injury C57BL/6 mouse model assessed as decrease in serum AST content at 3 mg/kg, ip administered 2 hrs prior to APAP injection and measured after 6 hrs; type: functional, organism-based; conditions: time 8.0 hrs
ES-2 [19] = assay: Inhibition of ferritinophagy in erastin-stimulated human ES2 cells assessed as increase in ferritin protein expression incubated for 8 to 10 hrs by western blot analysis; type: functional, cell-based; conditions: dose 0.01-1 µM, time 8-10 hrs
ES2 = assay: Effect on ERK1/2 phoshorylation in erastin-stimulated human ES2 cells at 0.01 to 1 uM incubated for 8 to 10 hrs by western blot analysis; type: cell-based; conditions: dose 0.01-1 µM, time 8-10 hrs
ES-2 [20] = assay: Inhibition of erastin-induced ferroptosis in human ES2 cells assessed as NRF2 protein expression at 0.01 to 1 uM incubated for 8 to 10 hrs by western blot analysis; type: functional, cell-based; conditions: dose 0.01-1 µM, time 8-10 hrs
Mus musculus [21] = assay: Protection against APAP-induced acute liver injury C57BL/6 mouse model assessed as decrease in liver MDA content at 3 mg/kg, ip administered 2 hrs prior to APAP injection and measured after 6 hrs; type: functional, organism-based; conditions: time 8.0 hrs
[22] = Potency index, ratio of ferrostatin-1 EC50 to test compound EC50 for inhibition of erastin-induced ferroptosis in human ES2 cells; type: functional, ES-2
ES-2 [23] = assay: Inhibition of erastin-induced ferroptosis in human ES2 cells assessed as xCT protein expression at 0.01 to 1 uM incubated for 8 to 10 hrs by western blot analysis; type: functional, cell-based; conditions: dose 0.01-1 µM, time 8-10 hrs
Mus musculus [24] = assay: Protection against APAP-induced acute liver injury C57BL/6 mouse model assessed as decrease in serum ALT content at 3 mg/kg, ip administered 2 hrs prior to APAP injection and measured after 6 hrs; type: functional, organism-based; conditions: time 8.0 hrs
ES-2 [25] = assay: Inhibition of ferritinophagy in erastin-stimulated human ES2 cells assessed as increase in FTH1 gene expression at 0.01 to 1 uM by qRT-PCR analysis; type: functional, cell-based; conditions: dose 0.01-1 µM
THP-1 = assay: Inhibition of LPS/nigericin-stimulated pyroptosis in PMA-differentiated human THP-1 cells assessed as cell viability at 10 uM treated with LPS for 4 hrs followed by incubation with compound and nigericin for 30 mins by MTT assay; type: functional, cell-based
ES-2 [26] = assay: Inhibition of erastin-induced ferroptosis in human ES2 cells assessed as increase in intracellular GSH content at 1 uM measured after 8 to 10 hrs; type: functional, cell-based; conditions: time 8-10 hrs

SMILES: Fc1cccc(-c2noc(-c3cccc4nc5ccccc5nc34)n2)c1
EC50 (LX-2): 2 nM | EC50 (ES-2 [1]): 2 nM

SMILES: Cc1cccc(-c2noc(-c3cccc4nc5ccccc5nc34)n2)c1
EC50 (LX-2): 4 nM | EC50 (ES-2 [1]): 7 nM

SMILES: c1ccc2nc3ccccc3nc2c1 [PHENAZINE]
EC50 (ES-2 [1]): 2820 nM

SMILES: COc1ccccc1-c1noc(-c2cccc3nc4ccccc4nc23)n1
EC50 (LX-2): 5 nM | EC50 (ES-2 [1]): 13 nM

SMILES: c1cncc(-c2noc(-c3cccc4nc5ccccc5nc34)n2)c1
EC50 (ES-2 [1]): 240 nM

SMILES: c1ccc2nc3c(-c4nc(-c5ccncc5)no4)cccc3nc2c1
EC50 (ES-2 [1]): 7 nM

SMILES: c1ccc(-c2noc(-c3cccc4nc5ccccc5nc34)n2)cc1
EC50 (ES-2 [1]): 4 nM

SMILES: Brc1cccc(-c2noc(-c3cccc4nc5ccccc5nc34)n2)c1
EC50 (LX-2): 6 nM | EC50 (ES-2 [1]): 2 nM

SMILES: Fc1ccccc1-c1noc(-c2cccc3nc4ccccc4nc23)n1
EC50 (LX-2): 1 nM | EC50 (ES-2 [1]): 5 nM

SMILES: c1ccc2nc3c(-c4nc(C5CC5)no4)cccc3nc2c1
EC50 (ES-2 [1]): 214 nM

SMILES: Cc1noc(-c2cccc3nc4ccccc4nc23)n1
EC50 (ES-2 [1]): 268 nM

SMILES: Fc1ccc(-c2noc(-c3cccc4nc5ccccc5nc34)n2)cc1F
EC50 (LX-2): 11 nM | EC50 (ES-2 [1]): 9 nM

SMILES: FC(F)(F)c1ccc(-c2noc(-c3cccc4nc5ccccc5nc34)n2)cc1
EC50 (LX-2): 32 nM | EC50 (ES-2 [1]): 3 nM

SMILES: FC(F)(F)c1cccc(-c2noc(-c3cccc4nc5ccccc5nc34)n2)c1
EC50 (LX-2): 13 nM | EC50 (ES-2 [1]): 2 nM

SMILES: CC(C)c1noc(-c2cccc3nc4ccccc4nc23)n1
EC50 (ES-2 [1]): 136 nM

SMILES: FC(F)(F)c1ccccc1-c1noc(-c2cccc3nc4ccccc4nc23)n1
EC50 (LX-2): 15 nM | EC50 (ES-2 [1]): 39 nM

SMILES: CC(C)(C)c1cccc(-c2noc(-c3cccc4nc5ccccc5nc34)n2)c1
EC50 (LX-2): 7 nM | EC50 (ES-2 [1]): 3 nM

SMILES: CC(C)(C)c1noc(-c2cccc3nc4ccccc4nc23)n1
EC50 (ES-2 [1]): 604 nM

SMILES: Cc1ccc(-c2noc(-c3cccc4nc5ccccc5nc34)n2)cc1
EC50 (LX-2): 2 nM | EC50 (ES-2 [1]): 130 nM

SMILES: CC(C)(C)c1ccc(-c2noc(-c3cccc4nc5ccccc5nc34)n2)cc1
EC50 (LX-2): 13 nM | EC50 (ES-2 [1]): 11 nM

SMILES: Fc1ccc(-c2noc(-c3cccc4nc5ccccc5nc34)n2)cc1
EC50 (LX-2): 2 nM | EC50 (ES-2 [1]): 2 nM

Activity [5]: inactive
SMILES: c1cc(CN2CCCCC2)cc(-c2noc(-c3cccc4nc5ccccc5nc34)n2)c1
inhibition (ES-2 [2]): inactive | inhibition (HT-29): inactive | inhibition (ES-2 [3]): inactive | inhibition (ES-2 [4]): inactive | inhibition (ES-2 [6]): inactive | inhibition (ES-2 [7]): Active | inhibition (ES-2 [8]): inactive | inhibition (ES-2 [9]): Dose-dependent-effect | inhibition (ES-2 [10]): inactive | Activity (Mus musculus [11]): Active | inhibition (ES-2 [12]): Active | Activity [13]: inactive | inhibition (ES-2 [14]): Active | inhibition (ES-2 [15]): inactive | inhibition (ES-2 [16]): Active | inhibition (ES-2 [17]): inactive | Activity (Mus musculus [18]): Active | EC50 (LX-2): 0.925 nM | inhibition (ES-2 [19]): Dose-dependent-effect | Activity (ES2): inactive | inhibition (ES-2 [20]): inactive | Activity (Mus musculus [21]): Active | Ratio EC50 [22]: 1000 | inhibition (ES-2 [23]): inactive | Activity (Mus musculus [24]): Active | inhibition (ES-2 [25]): Active | EC50 (ES-2 [1]): 0.712 nM | inhibition (THP-1): inactive

SMILES: c1ccc2nc3c(-c4nc(-c5nccs5)no4)cccc3nc2c1
EC50 (ES-2 [1]): 6 nM

SMILES: CCOC(=O)c1ccc(NC2CCCCC2)c(N)c1
inhibition (HT-29): inactive | inhibition (ES-2 [6]): inactive | inhibition (ES-2 [26]): inactive | EC50 (LX-2): 67 nM | EC50 (ES-2 [1]): 70.1 nM | inhibition (THP-1): inactive

SMILES: c1ccc(-c2noc(-c3cccc4nc5ccccc5nc34)n2)nc1
EC50 (ES-2 [1]): 131 nM

SMILES: Cc1ccccc1-c1noc(-c2cccc3nc4ccccc4nc23)n1
EC50 (LX-2): 10 nM | EC50 (ES-2 [1]): 13 nM

SMILES: c1ccc2nc3c(-c4nc(-n5cccn5)no4)cccc3nc2c1
EC50 (ES-2 [1]): 143 nM

SMILES: CCOc1ccccc1-c1noc(-c2cccc3nc4ccccc4nc23)n1
EC50 (LX-2): 10 nM | EC50 (ES-2 [1]): 23 nM

SMILES: FC(F)(F)Oc1cccc(-c2noc(-c3cccc4nc5ccccc5nc34)n2)c1
EC50 (LX-2): 14 nM | EC50 (ES-2 [1]): 6 nM

SMILES: c1ccc2nc3c(-c4nc(-c5ccc(N6CCOCC6)cc5)no4)cccc3nc2c1
EC50 (LX-2): 1 nM | EC50 (ES-2 [1]): 1 nM

SMILES: CN(C)c1cccc(-c2noc(-c3cccc4nc5ccccc5nc34)n2)c1
EC50 (LX-2): 2 nM | EC50 (ES-2 [1]): 1 nM
